According to article PMC12722636, “Structural Pharmacology of Bufotenine Derivatives in Activating the 5-HT1A Receptor for Therapeutic Potential in Depression and Anxiety” (Research, 2025):
Where two headings read alike, the source gives them in different places.

What was measured:
5-HT1A receptor = target: T1, 5-HT1A receptor (Homo sapiens, UniProt P08908); assay: GloSensor cAMP assay, 5-HT1A Gi signaling in HEK 293T cells; format: cell-based
T1 sequence (P08908 1-422): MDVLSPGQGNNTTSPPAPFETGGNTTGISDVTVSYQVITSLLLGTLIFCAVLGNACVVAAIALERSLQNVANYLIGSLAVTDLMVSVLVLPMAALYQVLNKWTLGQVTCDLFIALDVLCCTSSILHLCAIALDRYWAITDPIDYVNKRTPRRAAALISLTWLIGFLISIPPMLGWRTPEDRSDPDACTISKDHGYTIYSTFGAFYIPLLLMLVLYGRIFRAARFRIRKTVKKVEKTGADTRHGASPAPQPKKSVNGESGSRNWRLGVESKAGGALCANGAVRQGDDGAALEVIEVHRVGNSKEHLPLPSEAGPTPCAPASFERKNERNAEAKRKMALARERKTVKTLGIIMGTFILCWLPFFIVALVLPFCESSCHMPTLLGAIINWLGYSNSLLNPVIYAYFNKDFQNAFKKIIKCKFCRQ
Method: (§3) The downstream Gαi signaling of 5-HT1A was assessed using the GloSensor cAMP assay (Promega). HEK 293T cells were cultured in DMEM with 10% FBS and 1% penicillin–streptomycin at 37 °C and 5% CO2. Cells were transfected with 5-HT1A constructs and the GloSensor-22F biosensor at a 3:2 ratio. After 24 h, cells were resuspended in CO2-independent medium with 2% GloSensor reagent and plated at 3.5 × 10^5 cells/ml (20 μl/well) into 384-well plates. After 1-h incubation, forskolin (1 μM) and test ligands were added, and luminescence was immediately recorded using an EnVision plate reader (PerkinElmer).
(§4) An evaluation of the concentration–response curves was carried out using a logistic equation with 3 parameters. Calculations of pEC50 values were performed with the use of the sigmoid 3-parameter equation. In order to assess the significance, a 1-way or 2-way analysis of variance was conducted, followed by Bonferroni’s or Dunnett’s post hoc test. Differences were considered significant when P < 0.05 and are shown as *P < 0.05, **P < 0.01, or ***P < 0.001.

5-HT2A receptor = target: T2, 5-HT2A receptor (Homo sapiens, UniProt P28223); assay: cell-based; format: cell-based
T2 construct: expressed in transfected cells; host or cells: HEK 293T
Text: We evaluated the impact of bufotenine derivatives on 6 serotonin receptor subtypes associated with depression (5-HT1A, 5-HT1B, 5-HT1D, 5-HT2A, 5-HT2C, and 5-HT7) using the GloSensor cAMP assay to measure Gi and Gs activation and the IP-One assay to assess Gq activation, thereby detecting signaling activity at each receptor. […] We conducted a thorough pharmacological analysis of bufotenine derivatives to evaluate their hallucinogenic potential via 5-HT2AR activation, comparing their receptor binding profiles and functional activities at 5-HT1AR and 5-HT2AR subtypes.
The downstream Gαq signaling of 5-HT2A was evaluated using the IP-One HTRF assay (Cisbio). HEK 293T cells were cultured in DMEM with 10% FBS and 1% penicillin–streptomycin at 37 °C, 5% CO2. After 24 h of transfection, cells were resuspended in stimulation buffer (8 × 10^5 cells/ml) and plated at 7 μl/well into 384-well plates. Ligands diluted in buffer (7 μl) were added and incubated for 1 h at 37 °C. IP-One-d2 and anti-IP-One cryptate (3 μl each) were then added, followed by 30-min incubation at room temperature. HTRF signals were measured using an EnVision reader (PerkinElmer).
as §4

mice [1] = assay: Head-twitch response (HTR), side effect detection; format: in vivo, C57BL/6 male mice; conditions: 25 mg/kg i.p., recorded 10 min, in contrast to 5-MeO-DMT, Fig. S10
Method: (§1) Then, HTR and HLA were immediately tested. Mice were placed into the observation arena (25 × 25 × 40 cm) under low-light conditions. The number of head-twitch events and total distance were respectively recorded for 10 and 30 min. For the HTR test, the number of head twitches was examined by 2 observers blinded to the treatments via video recordings. For the HLA test, the total distance traveled was measured by using tracking software to process video recordings.

mice [2] = assay: Horizontal locomotor activity (HLA), side effect detection; format: in vivo, C57BL/6 male mice; conditions: 25 mg/kg i.p., recorded 30 min, in contrast to 5-MeO-DMT, Fig. S10
Method: as §1

[3] = test system: PCPA-induced mouse model of depression and anxiety; assay: Tail suspension test (TST) in PCPA model; format: in vivo, C57BL/6 male mice; conditions: for Immobility time in TST: PCPA model, 5-OH-DMT 15 mg/kg i.p. or WAY100635 1 mg/kg i.p. for 3 d, versus control or model group, Fig. 6F
Method: (§2) Mice in the control group were fed with saline solution containing 0.1% DMSO (vehicle) for 3 d. Mice that were injected subcutaneously with 150 mg/kg PCPA twice daily for 3 d developed symptoms of depression. […] For WAY100635 treatment, mice were injected intraperitoneally with 1 mg/kg WAY100635 for 3 d. […] Then, mice were tested for all behaviors.

[4] = test system: PCPA-induced mouse model of depression and anxiety; assay: Forced swimming test (FST) in PCPA model; format: in vivo, C57BL/6 male mice; conditions: for Immobility time in FST: PCPA model, 5-OH-DMT 15 mg/kg i.p. or WAY100635 1 mg/kg i.p. for 3 d, versus control or model group, Fig. 6G
Method: as §2

[5] = test system: PCPA-induced mouse model of depression and anxiety; assay: Sucrose preference test (SPT) in PCPA model; format: in vivo, C57BL/6 male mice; conditions: for Sucrose preference: PCPA model, 5-OH-DMT 15 mg/kg i.p. or WAY100635 1 mg/kg i.p. for 3 d, versus control or model group, Fig. 6H
Method: as §2

[6] = test system: PCPA-induced mouse model of depression and anxiety; assay: Open-field test (OFT) in PCPA model; format: in vivo, C57BL/6 male mice; conditions: for OFT time spent in center / OFT total distance traveled: PCPA model, 5-OH-DMT 15 mg/kg i.p. or WAY100635 1 mg/kg i.p. for 3 d, versus control or PCPA mice, Fig. 6I
Method: as §2

5-HT1A A365^6.55F mutant = assay: GloSensor cAMP assay on 5-HT1A mutant A365F; conditions: mutant versus WT 5-HT1A, fold less potent, Fig. S7E
Method: In order to examine the underlying mechanism of ligand selectivity, we introduced a mutation at position A365^6.55, replacing it with phenylalanine.
as §3
WT or mutant were transfected into HEK293T cells and Glosenser cAMP assay were measured to reflect the activity of 5-HT1AR. The response data was normalized by WT receptor within each individual experiment, with the basal activity for WT as 0, while the fitted Emax of WT as 100. Three independent experiments were conducted (n=3).

CUMS model mice [7] = assay: Open-field test (OFT) in CUMS depression model; conditions: 15 mg/kg i.p. for 1 week; for OFT time spent in the center / OFT total distance traveled: CUMS mice, regardless of 5-HT1AR knockdown, Fig. 6D
CUMS model mice [8] = assay: Sucrose preference test (SPT) in CUMS depression model; conditions: 15 mg/kg i.p. for 1 week, versus CUMS model, Fig. 6C
[9] = PCPA + 5-OH-DMT 15 mg/kg + WAY100635 1 mg/kg i.p. versus PCPA + 5-OH-DMT

T2 sequence (P28223 whole entry): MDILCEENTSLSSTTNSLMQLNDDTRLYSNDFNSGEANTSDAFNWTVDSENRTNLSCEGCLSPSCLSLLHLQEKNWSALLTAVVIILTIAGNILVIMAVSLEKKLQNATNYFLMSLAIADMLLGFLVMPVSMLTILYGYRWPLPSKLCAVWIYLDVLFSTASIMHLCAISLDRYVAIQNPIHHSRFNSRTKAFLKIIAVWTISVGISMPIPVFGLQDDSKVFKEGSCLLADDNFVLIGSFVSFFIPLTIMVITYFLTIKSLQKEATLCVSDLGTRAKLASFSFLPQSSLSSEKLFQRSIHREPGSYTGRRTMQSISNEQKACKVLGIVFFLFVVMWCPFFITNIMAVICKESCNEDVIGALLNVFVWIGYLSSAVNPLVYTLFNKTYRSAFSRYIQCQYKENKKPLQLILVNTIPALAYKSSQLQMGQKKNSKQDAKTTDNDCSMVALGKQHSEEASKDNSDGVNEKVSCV

| Compound | Immobility time in TST [3] | Immobility time in FST [4] | Sucrose preference [5] | OFT time spent in center [6] | OFT total distance traveled [6] | OFT time spent in the center (CUMS model mice [7]) | OFT total distance traveled (CUMS model mice [7]) | Sucrose preference (CUMS model mice [8]) | further results |
| --- | --- | --- | --- | --- | --- | --- | --- | --- | --- |
| C[N+](C)(C)CCc1c[nH]c2ccc([O-])cc12 [Compound 5-OH-TMT, 5-hydroxy-N,N,N-dimethyltryptamine] |  |  |  |  |  |  |  |  | EC50 (5-HT1A receptor; GloSensor cAMP, Gi activation, HEK 293T, Fig. 1A, read-out: EC50 at 5-HT1AR): 10 µM; EC50 (5-HT2A receptor): 10 µM |
| CN(C)CCc1c[nH]c2ccc(O)cc12 [Compound 5-OH-DMT, 5-hydroxy-N,N-dimethyltryptamine] | shorter immobility durations | shorter immobility durations | increased sucrose preference | dramatically increased | dramatically increased | increased | increased | significantly counteract the reduction in sucrose preference induced by CUMS | EC50 (5-HT1A receptor): 0.1 µM; Drop in potency with 5-HT2A (5-HT2A receptor; 5-HT2A relative to 5-HT1A, times lower, Fig. 1A): roughly 10 times; Head-twitch response (HTR) (mice [1]): somewhat reduced; Horizontal locomotor activity (HLA), total distance (mice [2]): somewhat reduced; Immobility time in TST, with addition of WAY100635 [3, 9]: prolonged the immobility time; Immobility time in FST, with addition of WAY100635 [4, 9]: prolonged the immobility time; Sucrose preference, with addition of WAY100635 [5, 9]: this increase was reversed by WAY100635; OFT time spent in the center, with administration of WAY100635 [6, 9]: significantly recovered these changes; OFT total distance, with administration of WAY100635 [6, 9]: significantly recovered these changes; Loss in potency at A365^6.55F mutant (5-HT1A A365^6.55F mutant): around 1,000 fold |
| COc1ccc2[nH]cc(CCN(C)C)c2c1 [Compound 5-MeO-DMT, 5-methoxy-N,N-dimethyltryptamine] |  |  |  |  |  | increased | increased | significantly counteract the reduction in sucrose preference induced by CUMS | Potency at 5-HT2AR compared to 5-OH-DMT (5-HT2A receptor; ratio of EC50 values, times more potent): 100 times; OFT total distance after 5-HT1AR was knocked down (CUMS model mice [7]; CUMS, sh-5-HT1AR versus NC mice): reduced total distance |
| COc1ccccc1N1CCN(CCN(C(=O)C2CCCCC2)c2ccccn2)CC1 [WAY100635, reference compound] | significantly increased immobility time | significantly increased immobility time | reduced sucrose preference | less time spent in center | less total distance traveled |  |  |  |  |
